Data from paper PMC9288506, “Compounds activating VCP D1 ATPase enhance both autophagic and proteasomal neurotoxic protein clearance” (Nature Communications, 2022).

How the values were obtained:
Test in all cases: biochemical
Set-up in all cases: Thermo Fisher in vitro kinase panel, per cent inhibition of kinase activity at 10 uM
[1] = target: AXL (Homo sapiens, UniProt P30530)
Procedure: (§1) Kinase profiling of SMER28 and analogs SMER28 and analogs were tested at 10 µM in a panel of 123 kinases at ThermoFisher Scientific. Follow-up of selected kinases for SMER28 and analogs was also performed at ThermoFisher Scientific. Data are shown in Supplementary Data 2 and 3. […] An inhibition of PIK3C could induce autophagy, mediated by signaling through the AKT/mTOR axis[45].

[2] = target: ROS1 (Homo sapiens, UniProt P08922)
Procedure: as §1

[3] = target: PI4KB (PI4K beta) (Homo sapiens, UniProt Q9UBF8)
Procedure: as §1

[4] = target: IGF1R (Homo sapiens, UniProt P08069)
Procedure: as §1

[5] = target: NUAK1 (ARK5) (Homo sapiens, UniProt O60285)
Procedure: as §1

[6] = target: EPHA5 (Homo sapiens, UniProt P54756)
Procedure: as §1

[7] = target: PTK2 (FAK) (Homo sapiens, UniProt Q05397)
Procedure: as §1

[8] = target: EPHB4 (Homo sapiens, UniProt P54760)
Procedure: as §1

[9] = target: BRAF (Homo sapiens, UniProt P15056)
Procedure: as §1

[10] = target: NTRK1 (TRKA) (Homo sapiens, UniProt P04629)
Procedure: as §1

[11] = target: IRAK4 (Homo sapiens, UniProt Q9NWZ3)
Procedure: as §1

[12] = target: FGFR1 (Homo sapiens, UniProt P11362)
Procedure: as §1

[13] = target: CHEK1 (CHK1) (Homo sapiens, UniProt O14757)
Procedure: as §1

[14] = target: PIK3CD/PIK3R1 (p110 delta/p85 alpha) (Homo sapiens, UniProt O00329)
Procedure: as §1

[15] = target: INSR (Homo sapiens, UniProt P06213)
Procedure: as §1

[16] = target: NEK2 (Homo sapiens, UniProt P51955)
Procedure: as §1

[17] = target: TBK1 (Homo sapiens, UniProt Q9UHD2)
Procedure: as §1

[18] = target: CSNK2A2 (CK2 alpha 2) (Homo sapiens, UniProt P19784)
Procedure: as §1

[19] = target: EPHB1 (Homo sapiens, UniProt P54762)
Procedure: as §1

[20] = target: MARK1 (MARK) (Homo sapiens, UniProt Q9P0L2)
Procedure: as §1

[21] = target: PRKCQ (PKC theta) (Homo sapiens, UniProt Q04759)
Procedure: as §1

[22] = target: T1, LYN A (Homo sapiens, UniProt P07948)
T1 construct: isoform A
Procedure: as §1

[23] = target: PIM2 (Homo sapiens, UniProt Q9P1W9)
Procedure: as §1

[24] = target: RET V804L (Homo sapiens, UniProt P07949, V804L)
Procedure: as §1

[25] = target: FGFR4 (Homo sapiens, UniProt P22455)
Procedure: as §1

[26] = target: BTK (Homo sapiens, UniProt Q06187)
Procedure: as §1

Chain of EPHB4 (P54760 whole entry): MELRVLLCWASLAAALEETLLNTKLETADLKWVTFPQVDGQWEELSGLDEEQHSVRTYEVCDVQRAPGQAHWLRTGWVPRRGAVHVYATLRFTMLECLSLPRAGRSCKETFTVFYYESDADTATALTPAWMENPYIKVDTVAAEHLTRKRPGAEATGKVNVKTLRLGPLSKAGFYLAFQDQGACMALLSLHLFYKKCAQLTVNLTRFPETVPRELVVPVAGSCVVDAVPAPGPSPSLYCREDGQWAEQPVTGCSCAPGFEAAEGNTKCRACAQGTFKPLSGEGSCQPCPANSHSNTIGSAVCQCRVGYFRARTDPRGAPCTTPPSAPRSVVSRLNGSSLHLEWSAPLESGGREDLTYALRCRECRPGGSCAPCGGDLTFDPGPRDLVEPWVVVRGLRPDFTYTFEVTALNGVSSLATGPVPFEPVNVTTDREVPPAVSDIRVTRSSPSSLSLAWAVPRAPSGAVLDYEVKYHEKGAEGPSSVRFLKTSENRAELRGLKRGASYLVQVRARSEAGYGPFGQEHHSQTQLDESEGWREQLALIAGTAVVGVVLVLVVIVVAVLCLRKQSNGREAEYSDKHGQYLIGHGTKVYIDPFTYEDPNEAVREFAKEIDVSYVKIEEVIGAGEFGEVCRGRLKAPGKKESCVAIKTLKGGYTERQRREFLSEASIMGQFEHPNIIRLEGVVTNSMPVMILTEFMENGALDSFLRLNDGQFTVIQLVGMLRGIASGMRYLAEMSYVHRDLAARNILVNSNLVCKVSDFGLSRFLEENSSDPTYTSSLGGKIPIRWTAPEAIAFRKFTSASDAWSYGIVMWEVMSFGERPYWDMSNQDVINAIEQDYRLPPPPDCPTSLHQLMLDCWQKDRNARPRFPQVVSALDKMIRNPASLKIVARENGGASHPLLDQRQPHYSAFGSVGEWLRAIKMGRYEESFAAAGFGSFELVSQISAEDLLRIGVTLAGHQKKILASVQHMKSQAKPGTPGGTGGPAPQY
Chain of FGFR1 (P11362 whole entry): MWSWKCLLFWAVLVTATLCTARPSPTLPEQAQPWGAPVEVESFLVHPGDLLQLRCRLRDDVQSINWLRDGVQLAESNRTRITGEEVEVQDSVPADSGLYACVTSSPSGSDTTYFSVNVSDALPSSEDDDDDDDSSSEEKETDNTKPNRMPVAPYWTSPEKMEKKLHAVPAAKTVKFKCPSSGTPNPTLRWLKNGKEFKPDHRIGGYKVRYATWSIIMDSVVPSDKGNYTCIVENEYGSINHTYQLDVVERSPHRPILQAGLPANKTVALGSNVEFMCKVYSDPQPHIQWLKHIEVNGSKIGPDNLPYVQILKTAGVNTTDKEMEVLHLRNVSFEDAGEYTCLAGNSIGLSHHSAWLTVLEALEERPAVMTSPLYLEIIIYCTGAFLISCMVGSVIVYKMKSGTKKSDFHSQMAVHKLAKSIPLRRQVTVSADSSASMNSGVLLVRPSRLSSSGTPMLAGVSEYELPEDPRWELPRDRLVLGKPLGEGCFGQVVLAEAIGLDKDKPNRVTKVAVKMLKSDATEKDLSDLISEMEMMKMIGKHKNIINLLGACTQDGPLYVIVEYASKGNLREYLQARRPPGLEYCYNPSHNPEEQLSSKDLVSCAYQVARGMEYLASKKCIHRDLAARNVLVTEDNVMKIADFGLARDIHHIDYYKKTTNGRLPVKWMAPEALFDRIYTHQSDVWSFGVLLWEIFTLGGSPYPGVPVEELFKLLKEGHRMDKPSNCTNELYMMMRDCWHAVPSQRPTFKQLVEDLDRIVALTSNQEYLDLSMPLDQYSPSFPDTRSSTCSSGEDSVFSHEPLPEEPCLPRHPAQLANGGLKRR
Chain of EPHB1 (P54762 whole entry): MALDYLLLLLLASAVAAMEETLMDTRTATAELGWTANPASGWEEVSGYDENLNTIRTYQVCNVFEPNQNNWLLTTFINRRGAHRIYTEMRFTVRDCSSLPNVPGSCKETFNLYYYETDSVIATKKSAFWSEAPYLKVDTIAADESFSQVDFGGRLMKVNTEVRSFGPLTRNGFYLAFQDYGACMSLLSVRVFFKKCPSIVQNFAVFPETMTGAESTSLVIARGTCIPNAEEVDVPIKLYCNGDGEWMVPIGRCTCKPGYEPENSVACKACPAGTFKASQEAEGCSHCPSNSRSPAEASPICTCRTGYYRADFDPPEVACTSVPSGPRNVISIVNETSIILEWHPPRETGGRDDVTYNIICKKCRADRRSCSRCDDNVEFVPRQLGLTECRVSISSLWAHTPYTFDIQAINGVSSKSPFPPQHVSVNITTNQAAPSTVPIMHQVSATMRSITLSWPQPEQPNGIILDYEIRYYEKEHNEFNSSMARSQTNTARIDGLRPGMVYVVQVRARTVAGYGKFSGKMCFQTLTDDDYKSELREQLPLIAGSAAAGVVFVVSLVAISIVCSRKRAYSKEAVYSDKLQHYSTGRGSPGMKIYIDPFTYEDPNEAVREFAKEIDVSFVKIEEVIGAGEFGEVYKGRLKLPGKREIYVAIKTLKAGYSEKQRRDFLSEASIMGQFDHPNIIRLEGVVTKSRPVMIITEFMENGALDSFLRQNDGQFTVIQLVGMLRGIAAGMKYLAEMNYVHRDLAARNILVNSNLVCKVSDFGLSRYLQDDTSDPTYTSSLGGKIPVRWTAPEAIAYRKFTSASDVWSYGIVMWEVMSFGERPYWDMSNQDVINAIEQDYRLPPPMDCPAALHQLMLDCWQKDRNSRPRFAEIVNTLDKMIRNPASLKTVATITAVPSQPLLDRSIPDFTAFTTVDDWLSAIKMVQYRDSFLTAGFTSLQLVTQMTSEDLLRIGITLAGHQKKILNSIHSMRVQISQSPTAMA
Chain of BTK (Q06187 whole entry): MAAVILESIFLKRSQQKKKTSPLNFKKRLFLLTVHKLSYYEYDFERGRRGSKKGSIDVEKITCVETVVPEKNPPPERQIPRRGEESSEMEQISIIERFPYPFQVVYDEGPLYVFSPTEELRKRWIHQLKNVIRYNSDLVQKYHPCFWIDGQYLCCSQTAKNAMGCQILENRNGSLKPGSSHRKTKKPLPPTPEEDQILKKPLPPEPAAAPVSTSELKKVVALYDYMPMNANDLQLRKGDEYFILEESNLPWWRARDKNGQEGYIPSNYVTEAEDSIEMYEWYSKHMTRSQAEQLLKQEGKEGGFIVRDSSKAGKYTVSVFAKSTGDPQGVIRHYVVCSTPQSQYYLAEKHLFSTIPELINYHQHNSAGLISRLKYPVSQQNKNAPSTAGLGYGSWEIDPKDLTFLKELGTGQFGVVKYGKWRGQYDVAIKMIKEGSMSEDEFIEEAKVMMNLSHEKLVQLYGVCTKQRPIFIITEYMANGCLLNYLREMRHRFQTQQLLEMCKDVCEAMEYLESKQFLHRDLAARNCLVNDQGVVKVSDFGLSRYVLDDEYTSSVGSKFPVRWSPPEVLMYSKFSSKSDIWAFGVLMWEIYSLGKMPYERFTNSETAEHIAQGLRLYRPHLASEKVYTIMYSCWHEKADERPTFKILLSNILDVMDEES
Chain of CHEK1 (CHK1) (O14757 whole entry): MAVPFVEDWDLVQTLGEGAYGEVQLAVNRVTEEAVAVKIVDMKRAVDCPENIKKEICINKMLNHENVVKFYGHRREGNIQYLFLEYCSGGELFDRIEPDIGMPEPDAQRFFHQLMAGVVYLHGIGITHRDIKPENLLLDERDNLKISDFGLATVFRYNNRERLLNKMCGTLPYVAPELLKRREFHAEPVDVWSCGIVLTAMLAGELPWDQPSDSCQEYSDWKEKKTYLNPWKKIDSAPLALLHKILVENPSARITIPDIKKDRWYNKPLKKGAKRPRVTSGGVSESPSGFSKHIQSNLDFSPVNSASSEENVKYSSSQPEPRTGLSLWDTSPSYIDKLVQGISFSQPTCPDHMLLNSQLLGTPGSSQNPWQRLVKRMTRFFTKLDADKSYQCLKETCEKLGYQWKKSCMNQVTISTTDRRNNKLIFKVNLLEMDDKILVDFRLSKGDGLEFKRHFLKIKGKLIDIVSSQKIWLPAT
T1 sequence (P07948 whole entry, canonical isoform): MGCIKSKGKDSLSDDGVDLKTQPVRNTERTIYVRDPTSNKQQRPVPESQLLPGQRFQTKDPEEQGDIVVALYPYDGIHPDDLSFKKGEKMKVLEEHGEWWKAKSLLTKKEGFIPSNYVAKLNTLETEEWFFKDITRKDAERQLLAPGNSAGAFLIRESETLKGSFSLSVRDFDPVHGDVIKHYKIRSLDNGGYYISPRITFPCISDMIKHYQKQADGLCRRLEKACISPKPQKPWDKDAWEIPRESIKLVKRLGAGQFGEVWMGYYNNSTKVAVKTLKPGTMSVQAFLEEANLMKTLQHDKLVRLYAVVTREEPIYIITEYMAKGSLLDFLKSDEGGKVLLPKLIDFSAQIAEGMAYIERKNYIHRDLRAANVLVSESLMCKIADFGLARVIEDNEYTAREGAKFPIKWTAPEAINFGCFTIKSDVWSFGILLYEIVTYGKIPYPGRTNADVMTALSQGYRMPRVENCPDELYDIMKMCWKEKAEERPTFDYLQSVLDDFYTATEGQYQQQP
Chain of IRAK4 (Q9NWZ3 whole entry): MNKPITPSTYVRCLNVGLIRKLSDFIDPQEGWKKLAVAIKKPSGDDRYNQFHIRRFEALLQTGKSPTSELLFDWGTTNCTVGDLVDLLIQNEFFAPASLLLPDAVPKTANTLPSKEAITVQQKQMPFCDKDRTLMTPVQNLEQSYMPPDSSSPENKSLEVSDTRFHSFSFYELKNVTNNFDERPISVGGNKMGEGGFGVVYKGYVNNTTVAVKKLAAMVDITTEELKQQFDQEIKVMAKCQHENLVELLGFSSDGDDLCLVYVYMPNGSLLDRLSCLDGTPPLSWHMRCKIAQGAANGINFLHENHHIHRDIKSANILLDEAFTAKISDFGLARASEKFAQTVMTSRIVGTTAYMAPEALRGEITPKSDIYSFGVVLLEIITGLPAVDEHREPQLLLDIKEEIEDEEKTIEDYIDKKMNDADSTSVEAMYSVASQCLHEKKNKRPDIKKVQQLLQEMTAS

Question: Which results are given for `C=CCNc1ncnc2ccc(Br)cc12` [SMER28]?
Answer: inhibition at 10 µM [1]: 17%; inhibition at 10 µM [2]: 26%; inhibition at 10 µM [3]: 66%; inhibition at 10 µM [4]: 12%; inhibition at 10 µM [5]: 40%; inhibition at 10 µM [6]: 7%; inhibition at 10 µM [7]: 8%; inhibition at 10 µM [8]: -1%; inhibition at 10 µM [9]: 13%; inhibition at 10 µM [10]: 33%; inhibition at 10 µM [11]: 68%; inhibition at 10 µM [12]: 27%; inhibition at 10 µM [13]: -8%; inhibition at 10 µM [14]: 78%; inhibition at 10 µM [15]: -1%; inhibition at 10 µM [16]: -1%; inhibition at 10 µM [17]: 4%; inhibition at 10 µM [18]: 10%; inhibition at 10 µM [19]: 6%; inhibition at 10 µM [20]: 11%; inhibition at 10 µM [21]: 0%; inhibition at 10 µM [22]: 20%; inhibition at 10 µM [23]: -15%; inhibition at 10 µM [24]: 30%; inhibition at 10 µM [25]: 7%; inhibition at 10 µM [26]: 8%
